These results are taken from patent US6833445B2, “Guanidinylation, guanidinoglycosides, uses, and methods of assaying their activity” (The Regents of the University of California, priority 2000, dated 2004).

The target in assay [1] is HIV-1 Rev protein RNA recognition element (RRE). Kind of assay: Solid-phase assay: displacement of fluorescent Rev peptide from immobilized RRE. Type of assay: binding. The text has this: To facilitate the discovery of active guanidinoglycosides an assay system using HIV-1 response elements can be used. For example, RRE-specific binders as well as TAR specific binders can be identified using the methods of the present invention. The present invention provides a rapid screening assay and method depicted in FIG. 4. The Rev-RRE assay relies on the release of a fluorescently tagged Rev fragment from an immobilized RRE-Rev complex and can be performed under various stringency levels. The assay can be conducted in the presence of competing RNA molecules, other potential cellular targets, or cellular extracts. Only high affinity ligands can effectively compete with the bound Rev34-50 peptide (Kd is approximately 1 nM), thus releasing the highly fluorescent molecules into solution. Non-selective binders will be scavenged by competitor molecules present in solution.
In one embodiment, the present invention provides an assay for identifying a test compound which binds to RRE. The assay includes an immobilized RRE, a detectably labeled Rev, and a test compound. A test compound that liberates the labeled Rev due to competitive binding to the RRE results in an increase in the labeled Rev in the supernatant of the assay. Accordingly, following incubation of immobilized RRE, a labeled Rev, and a test compound, the supernatant is measured and the amount of label in the supernatant is determined. The amount of label in the supernatant is indicative of the degree or ability of the test compound to bind to the RRE or REV polypeptide. By comparing the amount of label in the supernatant with the amount in a control or standard sample, one can identify a test compound which effectively competes with the Rev for binding to RRE. […] In the depicted embodiment of FIG. 4 the ternary complex containing a fluorescently tagged Rev peptide bound to an immobilized RRE is incubated with the test compound (e.g., a potential competitor, binding agent or inhibitor)under conditions and in the presence of competing RNA molecules n a microcentrifuge filter tube. After incubation, the mixture is filtered and the filtrate is illuminated. In the presence of a strong and selective RRE binder, the fluorescently labeled peptide will be released from the beads into solution and the filtrate will become fluorescent.
The basic principle of the assay systems used to identify compounds that inhibit binding of Rev to RRE or compounds that interact with RRE involves preparing a reaction mixture containing the target (e.g., RRE) and the binding partner (e.g., labeled-Rev) under conditions and for a time sufficient to allow the two to interact and bind, thus form a complex. In order to test a compound for inhibitory activity, the reaction mixture is prepared in the presence and absence of the test compound. The test compound can be initially included in the reaction mixture, or can be added at a time subsequent to the addition of the RRE and its binding partner, Rev. Control reaction mixtures are incubated without the test compound or with a placebo. The presence of labeled-Rev that is not bound to RRE over that amount found in a control or standard sample is indicative of a test compound that competes with Rev for binding to RRE.
A novel solid-phase assembly was used to evaluate the RNA specificity of the new derivatives. This assay relies on the displacement of a fluorescent Rev peptide from a solid-phase immobilized RRE and can be performed in the presence of competing nucleic acids. Table 4 (columns b-d) summarizes the IC50 values determined by this method. By comparing IC50 values measured in the absence of any competitors to the values measured in the presence of DNA or RNA, a quantitative measure for the relative selectivity of each ligand can be made. Aminoglycosides have a substantial affinity to poly A-poly U duplex RNA (compare column b to c, Table 4). […] For neomycin, this ratio increases upon guanidinylation, indicating a lower RRE selectivity. […]

Assay [2] shares this target. Kind of assay: Fluorescence anisotropy: displacement of fluorescein-labeled Rev peptide from the RRE in solution. Format: binding. The text has this:
In a modification of the above assay, the solid support aspect of the above embodiment is removed. The biophysical characteristics of potential inhibitory test compounds can be detected by fluorescence anisotropy as depicted in FIG. 5. The RRE-bound fluorescent peptide has a slower Brownian tumbling motion relative to the free peptide in solution. Upon displacement of the fluorescently labeled Rev from the RRE by a competing inhibitor, a decrease in the anisotropy value is observed. The displacement of the labeled-Rev can be followed by monitoring the anisotropy at the emission wavelength of the Rev34-50-bound fluorophore.
The HIV-1 Rev-RRE interaction was used to examine the impact of guanidinylation upon RNA binding, and to probe the potential antiviral activity of these compounds. The binding of Rev to the RRE (Rev response element) is responsible for the export of unspliced and singly spliced HIV genomic RNA out of the host nucleus. This essential protein-RNA interaction remains an important, and nonutilized, therapeutic target. The high-affinity Rev binding site on the RRE has been localized to the purine-rich bulge. The binding of Rev to the RRE is governed by the arginine-rich fragment, Rev34-50. Key guanidinium groups make direct contacts with the RNA platform and are essential for the specific binding of Rev to the RRE. Fluorescence anisotropy has been employed to determine the affinity of the new derivatives to the RRE in solution. The RRE-bound fluorescent Rev peptide has a slower Brownian tumbling motion relative to the free peptide. Upon displacement of the fluorescein-labeled Rev peptide from the RRE by an inhibitor, a decrease in the anisotropy value is observed. Table 4 (column a) compares the IC50 values of the guanidinoglycosides to the aminoglycosides. Guanidinylation of kanamycin A, kanamycin B, and tobramycin results in a greater than 10-fold increase in inhibitory activity relative to the parent compounds. A 5-fold increase in activity is observed upon guanidinylation of neomycin B and paromomycin.
(In fluorescence polarisation assays a small probe gives low polarisation when free and higher when bound to something large.)

Assay [3] relates to HIV-1. Kind of assay: Inhibition of viral replication in HIV-1-infected CD4+ HeLa cells (plaque formation). Format: cell-based. On the procedure: By converting aminoglycosides into guanidinoglycosides the biological activities of these glycosides were dramatically affected. Neomycin B was reported to be an in vivo and in vitro inhibitor of Rev-RRE binding, as well as an effective inhibitor of HIV-1 replication in vivo. The ability of guanidinoneomycin B and guanidinotobramycin to inhibit viral replication in HIV-1-infected CD4+ HeLa cells was measured and compared to the antiviral activities of neomycin B and tobramycin (FIG. 6). As evidenced by the dose-dependent decrease in plaque formation, the guanidinoglycosides inhibit HIV replication with activities approximately 100 times higher than their amino precursors (FIG. 6). The antiviral activity of the guanidinoglycosides may be related to their ability to bind the RRE with high affinity and specificity, thus preventing the HIV-1 Rev-RRE interaction and viral replication.

As to `N=C(N)NCC1OC(OC2C(NC(=N)N)CC(NC(=N)N)C(OC3OC(CO)C(O)C(NC(=N)N)C3O)C2O)C(NC(=N)N)CC1O` (stereo not drawn) [guanidino-tobramycin], the IC50 in assay [1] (15 ug/mL plasmid DNA (pGEM), read-out: IC50 (d) Solid-Phase + DNA) amounted to 3.5 µM; in assay [1] (15 ug/mL polyA-polyU duplex RNA, read-out: IC50 (c) Solid-Phase + poly A polyU), 5 µM; in assay [1] (Solid Phase Assay, competing DNA (Table 2), read-out: IC50 with DNA) it was 3 µM; in assay [1] (Solid Phase Assay, competing tRNA (Table 2), read-out: IC50 with tRNA), 3.5 µM; in assay [1] (Solid Phase Assay, no competitor (Table 2), read-out: IC50), 2.5 µM; in assay [1] (Solid-phase, no competitor (Table 4), read-out: IC50 (b) Solid-Phase), 3 µM. In addition, the IC50 worked out at 3.8 µM in assay [2] (Fluorescence Anisotropy (Table 4), read-out: IC50 (a) Anisotrophy) and 0.65 µM in assay [2] (Fluorescence Anisotropy, guanidino form of the glycoside (Table 3), read-out: IC50 (uM) guandino form). Further, the “(e) Ratio (c)/(b)” value in assay [1] (IC50 with polyA-polyU divided by IC50 without competitor, proportional to RRE selectivity) was 1.7. Further, the “more active when compared to tobramycin that has not been guanidinylated” value in assay [1] (solid phase assay) is “about 20 fold”. Further, the “activity in the presence of competing nucleic acids” value in assay [1] (solid phase assay, competing DNA / tRNA) is “approximately the same activity in the presence of both competing DNA and tRNA”. Further, the “inhibition of HIV replication, activity relative to parent aminoglycoside” value in assay [3] is listed as “approximately 100 times”.

Usually IC50 stands for the concentration that inhibits the measured activity by half.
